Source: publication PMC11101637, “Bioinformatics leading to conveniently accessible, helix enforcing, bicyclic ASX motif mimics (BAMMs)” (Nature Communications, 2024)
Peptide text beside a SMILES is read from it. * marks the point of attachment. X3 = C[C@@H]1NC(=O)[C@H](CCC(N)=O)NC(=O)[C@H](CC(=O)O)NC(=O)[C@@H](N)CSCc2cc3cc(c2)CSC[C@@H](C(=O)*)NC(=O)[C@H](CSC3)NC1=O; X1 = C[C@@H]1NC(=O)[C@H](CC(=O)O)NC(=O)[C@@H](N)CSCc2cc3cc(c2)CSC[C@@H](C(=O)*)NC(=O)[C@H](CSC3)NC(=O)[C@H](CO)NC1=O; X2 = C[C@@H]1NC(=O)[C@H](C)NC(=O)[C@H](CC(=O)O)NC(=O)[C@@H](N)CSCc2cc3cc(c2)CSC[C@@H](C(=O)*)NC(=O)[C@H](CSC3)NC1=O

Assays:
cyclin E [1] = target: T1, cyclin E (Homo sapiens, UniProt P24864); assay: Direct FP assay to measure Kd of fluorescent peptides; type: binding; conditions: FITC-labelled peptide 20 nM final, cyclin E up to 2.4 μM final, PBS, 3 h, n=1 independent experiment in duplicate wells; not saturated, estimate value; read-out: Kd, fluorescence polarization
T1 construct: purchased Sino Biological
Protocol: Direct FP assay to measure Kd of fluorescent peptides
Polarized fluorescence intensities were measured on Synergy H4 plate reader with excitation and emission wavelengths of 485 and 535 nm with 20 nm band widths, respectively. The optics position is Top 510 nm with Gain set as 100. Read Speed is normal and read height is 7 mm. Cyclin proteins were bought from Sino Biological and after reconstitution it should be used immediately. […] To each well, 10 μL 40 nM of fluorescent peptides in PBS was added. Various concentrations of cyclin E (from Sino Biological, Inc.) were prepared (0.16–4.8 μM) and 10 μL were added to each well. The plate was shaken in the dark for 3 h. Wells containing only the peptide and PBS buffer were used as a control. Each mixture was prepared in duplicates.

[2] = In vitro peptide stability in human serum; type: in vitro ADME; conditions: 25% male human serum diluted in RPMI medium, 150 μM peptide, 37 °C, serum pre-equilibrated 15 min, methanol precipitation, RP-HPLC 210 nm peak area relative to 0 h, LC-MS for products
Protocol: In vitro peptide stability in human serum[50]
Male human serum (H-4522) was obtained from Sigma Aldrich (Missouri, USA). […] The initial time is recorded as peptides were added. The mixture was incubated at 37 °C and an aliquot of 40 μL was removed at different time intervals. […] The supernatant was analyzed in analytical RP-HPLC to calculate the amount of tested peptides, and in LCMS to analyze degradation products. The eluted peptides were detected by absorbance at 210 nm and quantified by their peak areas relative to the initial peak areas (0 h).

[3] = CD spectroscopy: percent helicity and ellipticity ratio 222/208 nm; type: physicochemical; conditions: for % helicity: 5-30 μM peptide, three scans averaged, [θ]222/[θ]max
Protocol: Circular dichroism (CD) experiments
Concentrations of the stock solution were determined by […] absorption of Trp or 275 nm absorption of Tyr (and TMB, if present in peptides). Each sample was dissolved in 1x PBS (pH 7.4), 10% TFE/PBS or 20% TFE/PBS with the final concentration between 5 to 30 μM. CD spectra were acquired using circular dichroism spectrometer (Chirascan) equipped with a temperature controller using 1 mm cell at a scan speed of 0.5 nm/sec at indicated temperature. Each sample was scanned three times and the averaged spectrum was smoothed.
Calculation of percent helicity
For simplicity, ‘helicity’ or ‘helical’ in the following text all refers to α-type. For each peptide, mean residue ellipticities ([θ]/(c*n), c = concentration of the peptide, n = number of amino acids in the peptide) were used to calculate % helicity, which is an empirical indicator of peptide helicity. […] (n = number of amino acids in the peptide, T = 25.0 °C).

cyclin E [4] = target: T1, cyclin E; assay: Trp fluorescence quenching assay; type: binding; conditions: 0.8 μM cyclin E in PBS pH 7.4, 25 °C, ex 295 nm, em 338 nm; n = 2 independent experiments, ± S.D.
Protocol: Trp fluorescence quenching assay
Fluorescence quenching of the single tryptophan in cyclin E was measured by using a Cary Eclipse (Varian) equipped with a front-face fluorescence accessory at 25 °C, by using 10-nm excitation and 10 nm emission bandwidths. The excitation wavelength was 295 nm and the emission spectra were measured between 315 and 395 nm. Titrations were performed in a 0.7-ml quartz fluorescence cuvette containing 0.5 mL 0.8 μM protein in PBS buffer, pH 7.4, and by the successive addition of 0.5–1 μL of compound stock solutions. After each addition, the cuvette was shaken to enable fast mixture, and there were 10 mins interval between two additions to ensure equilibrium of the mixture. The measurements were repeated at least three times at each concentration. Fluorescence intensities at 338 nm at increasing concentrations of the quencher were collected. Dissociation equilibrium constant (Kd) values were determined by fitting data to the equation below[42],[43].

circular dichroism = conditions: PBS; pH 7.4; 25 °C; 5-30 uM
[5] = CD in PBS buffer (pH 7.4, 10 mM), 25.0 °C, 1 mm cell

T1 sequence (P24864 whole entry): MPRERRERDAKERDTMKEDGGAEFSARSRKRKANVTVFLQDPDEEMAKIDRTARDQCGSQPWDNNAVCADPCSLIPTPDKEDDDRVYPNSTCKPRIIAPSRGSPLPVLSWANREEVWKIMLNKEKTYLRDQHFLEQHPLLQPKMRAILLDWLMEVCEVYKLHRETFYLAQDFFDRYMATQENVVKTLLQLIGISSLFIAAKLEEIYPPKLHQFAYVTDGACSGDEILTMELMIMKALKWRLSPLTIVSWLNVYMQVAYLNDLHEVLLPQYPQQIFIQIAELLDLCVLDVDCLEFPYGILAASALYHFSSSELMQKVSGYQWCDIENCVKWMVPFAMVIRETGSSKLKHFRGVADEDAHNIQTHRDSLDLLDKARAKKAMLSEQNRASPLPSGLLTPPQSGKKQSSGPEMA

Row | Molecule | Kd (cyclin E [1]) [µM] | half-life [2] [h] | ellipticity ratio 222/208 nm ([3]; CD in 10% TFE/PBS, 25 °C) | % helicity ([3]; CD in 10% TFE/PBS, 25 °C) [%] | % helicity [3, 5] [%] | ellipticity ratio 222/208 nm ([3]; CD in PBS, 25 °C) | Kd (cyclin E [4]) [µM] | helicity (circular dichroism) [%] | half-life at 150 μM [2] [h]
1 | CC[C@H](C)[C@H](NC(=O)[C@@H]1CSCc2cc3cc(c2)CSC[C@H](NC(=O)[C@H](CO)NC(=O)[C@H](C)NC(=O)[C@H](CC(=O)O)NC(=O)[C@@H](NC(=O)CCNC(=O)CCNC(=O)CCNC(=S)Nc2ccc4c(c2)C(=O)OC42c4ccc(O)cc4Oc4cc(O)ccc42)CSC3)C(=O)N1)C(=O)N[C@@H](CCCNC(=N)N)C(=O)N[C@@H](CCC(=O)O)C(=O)N[C@H](C(=O)N[C@@H](CO)C(=O)N[C@@H](CC(C)C)C(=O)N[C@@H](CC(C)C)C(=O)N[C@@H](CCCCN)C(=O)N[C@@H](CCC(=O)O)C(=O)N[C@@H](Cc1ccc(O)cc1)C(N)=O)[C@@H](C)CC [3Bf] | 4.6 ± 2.4 | – | – | – | – | – | – | – | –
2 | CC[C@H](C)[C@H](NC(=O)[C@H](CC(N)=O)NC(=O)[C@H](CCCCN)NC(=O)[C@@H]1CSCc2cc3cc(c2)CSC[C@H](N)C(=O)N[C@@H](CC(=O)O)C(=O)N[C@@H](C)C(=O)N[C@@H](C)C(=O)N[C@@H](CSC3)C(=O)N1)C(=O)N[C@@H](C)C(=O)N[C@@H](CO)C(=O)N[C@@H](CC(C)C)C(=O)N[C@@H](CC(C)C)C(=O)N[C@@H](CCCNC(=N)N)C(=O)N[C@H](C(=O)N[C@@H](CCC(N)=O)C(=O)N[C@@H](C)C(=O)N[C@@H](Cc1c[nH]cn1)C(=O)N[C@H](C(=O)N[C@@H](CCCNC(=N)N)C(=O)N[C@@H](CCCCN)C(=O)N[C@@H](CCCCN)C(=O)N[C@@H](CCSC)C(=O)N[C@H](C(=O)N[C@@H](Cc1ccc(O)cc1)C(N)=O)C(C)C)[C@@H](C)CC)C(C)C [4B] (X2-KNIASLLRVQAHIRKKMVY-NH2; N-terminus and C-terminus assumed) | – | 1.1 | 1 | 45 | 22 | 0.64 | – | – | –
3 | Ac-ASTAIREISLLKEY-NH2 [3l] | – | – | 0.34 | 20 | 11 | 0.18 | 8.6 ± 2.8 | 11 | –
4 | CC[C@H](C)[C@H](NC(=O)[C@H](CCC(=O)O)NC(=O)[C@H](C)NC(=O)[C@H](CC(C)C)NC(=O)[C@H](CCC(N)=O)NC(=O)[C@@H]1CSCc2cc3cc(c2)CSC[C@H](N)C(=O)N[C@@H](CC(=O)O)C(=O)N[C@@H](CCC(N)=O)C(=O)N[C@@H](C(C)C)C(=O)N[C@@H](CSC3)C(=O)N1)C(=O)N[C@@H](Cc1ccc(O)cc1)C(N)=O [1B] | – | – | 0.86 | 43 | 17 | 0.48 | – | 17 | 5.1
5 | Ac-KNIASLLRVQAHIRKKMVY-NH2 [4l] | – | < 1 | 0.69 | 35 | 14 | 0.27 | – | 14 | –
6 | CC(C)C[C@H](NC(=O)[C@H](C)NC(=O)[C@H](CCCNC(=N)N)NC(=O)[C@H](CC(C)C)NC(=O)[C@H](CC(C)C)NC(=O)[C@@H]1CSCc2cc3cc(c2)CSC[C@H](N)C(=O)N[C@@H](CC(=O)O)C(=O)N[C@@H](CCC(N)=O)C(=O)N[C@@H](C)C(=O)N[C@@H](CSC3)C(=O)N1)C(=O)N[C@@H](CC(=O)O)C(=O)N[C@@H](CCC(N)=O)C(=O)N[C@@H](Cc1ccc(O)cc1)C(N)=O [2B] (X3-LLRALDQY-NH2; N-terminus and C-terminus assumed) | – | – | 1 | 42 | 25 | 0.91 | – | 25 | 2.9
7 | CC[C@H](C)[C@H](NC(=O)[C@@H]1CSCc2cc3cc(c2)CSC[C@H](N)C(=O)N[C@@H](CC(=O)O)C(=O)N[C@@H](C)C(=O)N[C@@H](CO)C(=O)N[C@@H](CSC3)C(=O)N1)C(=O)N[C@@H](CCCNC(=N)N)C(=O)N[C@@H](CCC(=O)O)C(=O)N[C@H](C(=O)N[C@@H](CO)C(=O)N[C@@H](CC(C)C)C(=O)N[C@@H](CC(C)C)C(=O)N[C@@H](CCCCN)C(=O)N[C@@H](CCC(=O)O)C(=O)N[C@@H](Cc1ccc(O)cc1)C(N)=O)[C@@H](C)CC [3B] (X1-IREISLLKEY-NH2; N-terminus and C-terminus assumed) | – | – | 0.84 | 34 | 17 | 0.5 | – | 17 | 3.5
